In patent US20130085133A1, “ANTI-VIRAL TREATMENT AND ASSAY TO SCREENFOR ANTI-VIRAL AGENT” (Sourthern Research Institute Office of Commercialization …, priority 2010, published 2013):
In brackets after ≈: the same amount, converted by molar mass.

How the values were obtained:
[1] = test system: respiratory syncytial virus (RSV) strain Long; assay: microbe, parasite or virus in culture; details: human respiratory syncytial virus, HEp-2, 144 h
[2] = cytotoxicity assay (percent viability of HEp-2 cells, Cell Titer-Glo); details: human

Structure (SMILES)	EC50 [1] [µg/mL]	CC50 at 6 days ([2]; HEp-2 cells) [µg/mL]	CC50 at 6 days [2] [µg/mL]
Cc1ccc2nc(-c3ccccc3)c(CN3CCCC3)c(O)c2c1 [AB00293683]	18.8 (≈ 59.1 µM)	> 25	
Fc1cccc(COc2ccc(C(=S)N3CCOCC3)cc2)c1 [AB00293926]	10.8 (≈ 32.6 µM)	> 25	
NC(=O)CC1Nc2ccccc2NC1=O (stereo not drawn) [AB00294484]	16.4 (≈ 80.1 µM)	> 25	
O=C(Nc1ccc2oc(-c3ccccc3Br)nc2c1)c1ccco1 [AB00294890]	22.5 (≈ 58.7 µM)	> 25	
CCn1c(COc2ccccc2OC)nc2ccccc21 [AB00296345]	18.9 (≈ 66.8 µM)	> 25	
COc1cc([N+](=O)[O-])ccc1NC(=O)C1CC(Cl)=CCC1C(=O)O (stereo not drawn) [AB00296680]	12.9 (≈ 36.3 µM)	> 25	
Cc1ccc(-c2csc3nc[nH]c(=O)c23)cc1C [AB00297372]	10.9 (≈ 42.4 µM)	> 25	
Cc1ccc(C(=O)Nc2ccc(OC(C)C)cc2)cc1C [AB00297482]	14.1 (≈ 49.7 µM)	> 25	
Cc1ccc(S(=O)(=O)NC2CCCC(C(=O)Oc3ccc4c(c3)oc(=O)c3ccccc34)C2)cc1 (stereo not drawn) [AB00297971]	19.2 (≈ 39.1 µM)	> 25	
Cc1ccc(S(=O)(=O)NC(C(=O)Oc2ccc3c(c2)oc(=O)c2ccccc23)c2ccccc2)cc1 (stereo not drawn) [AB00297982]	11 (≈ 22.1 µM)	> 25	
CCC(Oc1ccc(-c2ccc(C)cc2)cc1)C(=O)OC (stereo not drawn) [AB00298660]	13.5 (≈ 47.4 µM)	> 25	
COc1ccc(C(=O)N2CCC(C(=O)Nc3cccc(C(F)(F)F)c3)CC2)cc1 [AB00298665]	12.1 (≈ 29.9 µM)	> 25	
O=C(C1CCN(S(=O)(=O)c2ccccc2)CC1)N1CCc2ccccc2C1 [AB00298862]	20.4 (≈ 53.2 µM)	> 25	
COC(=O)Cc1ccc2c3ccccc3n(C)c2c1 [AB00299031]	21.7 (≈ 85.6 µM)	> 25	
CC1=CC(C)(C)Nc2ccc(OC(=O)C(Cc3ccccc3)N3C(=O)C4CCCCC4C3=O)cc21 (stereo not drawn) [AB00299290]	15.8 (≈ 33.5 µM)	> 25	
Cc1nc(Nc2ccccc2Cl)sc1C(=O)Nc1ccccc1 [AB00299380]	10.4 (≈ 30.3 µM)	> 25	
O=C(Nc1ccc(F)c(Cl)c1)C1CCN(C(=O)c2ccc(Cl)cc2)CC1 [AB00299386]	12.3 (≈ 31.2 µM)	> 25	
COc1ccc(C(=O)N2CCC(C(=O)Nc3cccc(Br)c3)CC2)cc1 [AB00299547]	18.1 (≈ 43.3 µM)	> 25	
C=CCNC(=O)COc1ccc(Br)cc1C [AB00299924]	22.4 (≈ 78.9 µM)	> 25	
O=C(O)c1ccc(NC(=S)NC(=O)c2ccc(-c3ccc(Br)cc3)o2)cc1 [AB00301183]	22.6 (≈ 50.9 µM)	> 25	
COc1ccccc1C(=O)N(CCCCN1C(=O)c2ccccc2C1=O)c1ccc(Cl)cc1 [AB00301352]	21.1 (≈ 45.5 µM)	> 25	
O=C1c2ccccc2C(=O)N1CCCCN(C(=O)c1ccccc1[N+](=O)[O-])c1ccc(Cl)cc1 [AB00301378]	17.8 (≈ 37.2 µM)	> 25	
Cc1ccc(N(CCCCN2C(=O)c3ccccc3C2=O)C(=O)c2cccc(C)c2)cc1 [AB00302020]	15.1 (≈ 35.5 µM)	> 25	
COCCNC(=O)Nc1ccc2nc(-c3cccs3)c(-c3cccs3)nc2c1 [AB00302454]	15.3 (≈ 37.4 µM)	> 25	
COC(=O)c1ccc(NC(=O)c2ccc(C)c(Br)c2)cc1 [AB00302921]	20.3 (≈ 58.2 µM)	> 25	

Structure (SMILES)	EC50 [1] [µg/mL]	CC50 at 6 days ([2]; HEp-2 cells) [µg/mL]	CC50 at 6 days [2] [µg/mL]
O=S1(=O)N=C(Nc2ccc3c4c(cccc24)CC3)c2ccccc21 [AB00304418]	10.7 (≈ 32.1 µM)	> 25	
Cc1sc(NC(=O)CCc2ccccc2)c(C(=O)O)c1C [AB00304690]	13.2 (≈ 43.5 µM)	> 25	
Cc1cccc(C(=O)Nc2cc(C(C)C)c(O)cc2C)c1 [AB00305611]	17.1 (≈ 60.3 µM)	> 25	
c1ccc(-c2cc3c(N4CCN(c5ccccc5)CC4)ncnc3s2)cc1 [AB00306917]	17.3 (≈ 46.5 µM)	> 25	
O=C1c2ccccc2C(=O)N1CCc1nc2ccccc2c(=O)n1-c1cc(Cl)ccc1Cl [AB00307079]	14.3 (≈ 30.9 µM)	> 25	
COc1ccc(CN2C(=O)CC(Cc3ccccc3)C2=O)cc1 (stereo not drawn) [AB00307412]	21.1 (≈ 68.3 µM)	> 25	
Cn1c(SCCc2ccccc2)nnc1-c1cccc([N+](=O)[O-])c1 [AB00309238]	20.3 (≈ 59.6 µM)	> 25	
COc1ccc2cc(Br)ccc2c1CO [AB00309550]	16.3 (≈ 61.1 µM)	> 25	
CCOc1ccccc1-c1cc(C(=O)O)c2cc(Br)ccc2n1 [AB00309817]	14.3 (≈ 38.6 µM)	> 25	
O=C(c1ccc(Cl)cc1Cl)N1CCCN(C(=O)c2ccc(Cl)cc2Cl)CC1 [AB00309842]	12.3 (≈ 27.6 µM)	> 25	
COC(=O)c1c(-c2ccc(C)c(C)c2)csc1NC(=O)CCCC(=O)O [AB00309859]	6.84 (≈ 18.2 µM)	> 25	
COc1ccc(C(=O)NCCc2cccc(Cl)c2)c(OC)c1 [AB00310156]	10.4 (≈ 32.5 µM)	> 25	
COC(=O)c1c(-c2ccc(C)cc2)csc1NC(=O)c1ccccc1Br [AB00310224]	24.5 (≈ 56.8 µM)	> 25	
O=C(c1ccccc1C(=O)N1CCc2ccccc2C1)N1CCc2ccccc2C1 [AB00310729]	14.1 (≈ 35.6 µM)	> 25	
CCC(C)N(C(=O)c1cc(Cl)ccc1OC)C(C)CC (stereo not drawn) [AB00310767]	15 (≈ 50.5 µM)	> 25	
CCC(=O)Nc1ccc(-c2csc(N)n2)cc1 [AB00310808]	23.6 (≈ 95.6 µM)	> 25	
O=C(Nc1ccccc1Br)c1cnccn1 [AB00310846]	19.6 (≈ 70.5 µM)	> 25	
COC(=O)c1c(-c2ccccc2)csc1NC(=O)c1c(-c2ccccc2)noc1C [AB00310910]	1.15 (≈ 2.75 µM)	> 25	
Nc1ccc2oc(-c3cc(F)c(F)cc3Cl)nc2c1 [AB00311411]	22.7 (≈ 80.9 µM)	> 25	
CCc1c(C)sc(NC(=O)c2ccc(C)o2)c1C(N)=O [AB00313012]	18 (≈ 61.5 µM)	> 25	
Cc1cccc(C)c1NC(=O)c1cccc(C(=O)Nc2c(C)cccc2C)n1 [AB00313091]	19.5 (≈ 52.1 µM)	> 25	
COc1ccc(-c2cc(C(=O)O)c3cc(Br)ccc3n2)c(OC)c1 [AB00313218]	22.2 (≈ 57.1 µM)	> 25	
NC(=O)c1c(NC(=O)Nc2cccc(Cl)c2)sc2c1CCCC2 [AB00313952]	2.72 (≈ 7.77 µM)	> 25	
CC(Oc1ccc(Cl)cc1Cl)C(=O)Nc1ccc(F)c(F)c1 (stereo not drawn) [AB00314248]	23.8 (≈ 68.8 µM)	> 25	
COC(=O)Nc1ccc2ccccc2c1 [AB00314279]	23.5 (≈ 117 µM)	> 25	

Structure (SMILES)	EC50 [1] [µg/mL]	CC50 at 6 days ([2]; HEp-2 cells) [µg/mL]	CC50 at 6 days [2] [µg/mL]
C=CCNc1cc(N2CCN(C(=O)c3ccc(Cl)cc3)CC2)ccc1[N+](=O)[O-] [AB00315446]	12 (≈ 29.9 µM)	> 25	
Cc1cc(C)cc(OCC(=O)N2CCc3ccccc3C2)c1 [AB00315731]	21.1 (≈ 71.3 µM)	> 25	
O=C(CCN1C(=O)c2cccc3cccc(c23)C1=O)N1CCc2ccccc2C1 [AB00315918]	15.4 (≈ 40 µM)	> 25	
Cc1cccc(NCc2cc(Cl)ccc2O)n1 [AB00317095]	24.3 (≈ 97.8 µM)	> 25	
CCOc1ccc(-c2nnc(Nc3ccc(OC)c(C(=O)NC)c3)c3ccccc23)cc1 [AB00317165]	19.5 (≈ 45.4 µM)	> 25	
O=C(Nc1cccc(Br)c1)C1CCN(C(=O)c2ccc([N+](=O)[O-])cc2)CC1 [AB00317214]	12.4 (≈ 28.6 µM)	> 25	
CC(C)(C)c1ccc(C(=O)N2CCC(C(=O)Nc3ccc4c(c3)OCO4)CC2)cc1 [AB00317272]	22.3 (≈ 54.5 µM)	> 25	
CCCCC(=O)Nc1cccc(NC(=O)c2ccccc2OC)c1 [AB00317410]	22.8 (≈ 70 µM)	> 25	
CC(C)(C)c1ccc(C(=O)N2CCC(C(=O)Nc3ccccc3Cl)CC2)cc1 [AB00317604]	23.7 (≈ 59.4 µM)	> 25	
CCOc1cc(C2CC(=O)Nc3c2ccc2ccccc32)cc(Cl)c1O (stereo not drawn) [AB00317685]	20.9 (≈ 56.8 µM)	> 25	
Cn1c(SC/C=C/c2ccccc2)nnc1-c1cccs1 [AB00318335]	24.2 (≈ 77.1 µM)	> 25	
COC(=O)C1=C(C)N(Cc2ccccc2)C(=O)NC1c1ccc(C(=O)OC)cc1 (stereo not drawn) [AB00318401]	2.39 (≈ 6.06 µM)	> 25	
CCCCC(=O)Nc1cccc(NC(=O)c2ccc(OCC)c([N+](=O)[O-])c2)c1 [AB00318606]	23.5 (≈ 60.9 µM)	> 25	
Cc1ccnc(NCc2cc(Br)ccc2O)c1 [AB00318952]	22.2 (≈ 75.8 µM)	> 25	
Cc1ccccc1C(=O)NC(=S)Nc1cccc(F)c1 [AB00319373]	24.4 (≈ 84.7 µM)	> 25	
C=CCNc1cc(N2CCN(C(=O)c3ccc(C)cc3)CC2)ccc1[N+](=O)[O-] [AB00319534]	13.8 (≈ 36.2 µM)	> 25	
CNc1cc(N2CCCC2)ccc1[N+](=O)[O-] [AB00322577]	18.7 (≈ 84.4 µM)	> 25	
O=Cc1cc(Br)c(Sc2ncccn2)o1 [AB00326733]	18.8 (≈ 65.8 µM)	> 25	
CCOC(=O)C1=C(C)Nc2ncnn2C1c1ccc(OC)c(OCC)c1 (stereo not drawn) [AB00335740]	21.1 (≈ 58.8 µM)	> 25	
COc1ccc(-c2nc3ccccc3s2)cc1O [AB00339206]	21.9 (≈ 85 µM)	> 25	
CN(C)C(=O)Oc1ccc2ccccc2c1Cl [AB00339302]	12.3 (≈ 49.2 µM)		> 25
Cc1cc(C)cc(C(=O)Nc2ccc(C#N)cc2)c1 [AB00340723]	19.8 (≈ 78.9 µM)	> 25	
N#C/C(=C\c1ccc(-c2ccc(Cl)c(Cl)c2)o1)C(N)=S [AB00344427]	17.9 (≈ 55.3 µM)	> 25	
Fc1cccc(NC(=S)NNC(=S)Nc2ccc(Cl)cc2)c1 [AB00348154]	10.6 (≈ 29.9 µM)	> 25	
CCOC(=O)c1ccc(NC(=O)NCCc2ccccc2OC)cc1 [AB00348268]	21.4 (≈ 62.6 µM)	> 25	
